The assay has as its system 30 clinical strains of M. tuberculosis isolated from patients in Thailand. Description: Microplate Alamar Blue assay, clinical strains. The format is cell-based. The conditions noted are these: Mycobacterium tuberculosis, including isoniazid and/or rifampin resistant strains, read-out: MICs against clinical strains of M. tuberculosis. A general note: Alamar Blue is a resazurin reagent that responds to reducing activity.

Regarding `C=CC(OC(C)=O)c1ccc(OC(C)=O)cc1` (stereo not shown) [1′-acetoxychavicol acetate, 1′-Acetoxychavicol acetate], the MIC was 0.1 to 0.5 µg/mL.

The values are drawn from patent US20020192262A1, “1'-Acetoxychavicol acetate for tuberculosis treatment” (National Science and Technology Development Agency, priority 2001, published 2002).
